Data set [1] can be described thus: Randomized, open-label, 2-way crossover pharmacokinetics and bioavailability study of oral vs intravenous baclofen. Conditions: for Cmax: healthy human volunteers; for Cmax / AUC: plasma; for Cmax / AUC0-∞/Dose / AUC: mean ± SD; for AUC: human. The class given is in vivo, human. The method, then:
Twelve healthy human volunteers were recruited. The volunteers were medication free for 48 hours before, during, and 24 hours after the administration of the study drug.
The 12 volunteers participated in a randomized, open-label, 2-way crossover study to compare the pharmacokinetics and bioavailability of oral baclofen with an intravenous baclofen formulation. The oral formulation was a 10 mg baclofen tablet. A single intravenous dose of 5 mg was administered over 15 minutes, using the commercially available 2 mg/mL intrathecal baclofen formulation (Lioresal Intrathecal). Blood samples (6 mL) for the measurement of plasma concentrations of baclofen were collected in blood collection tubes containing K2 ethylenediaminetetraacetic acid at the following times: prior to dosing; at 5, 15, and 30 minutes; and at 1, 2, 4, 6, 8, 10, 12, and 24 hours after drug administration.
Study plasma samples were prepared by adding 50 μL of a 500 μg/mL levetiracetam solution (internal standard) to 250 μL of K2 ethylenediaminetetraacetic acid (EDTA) human plasma. Baclofen and the internal standard were extracted from plasma by precipitating the protein with methanol and drying it under nitrogen at approximately 40° C. The dried residues were reconstituted in 300 μL of a mobile phase consisting of 20 mM ammonium acetate—methanol (75:25) solution. After 1 minute of vortex mixing, the reconstituted sample solution was filtered and injected onto the high-performance liquid chromatograph-mass spectrometer system. Standard curve samples over a range of 20 to 400 ng/mL baclofen and quality control samples containing 30 (low), 80 (medium), and 240 ng/mL (high) baclofen were prepared and analyzed in triplicate along with the study samples. The assay was linear over the range 20-400 ng/mL with a lower limit of quantification of 20 ng/mL.
Baclofen concentration—time data were analyzed using a noncompartmental pharmacokinetic approach with Phoenix software (version 6.2; Pharsight Corporation, Mountain View, CA). The terminal rate constant (λz) was determined from the slope of the terminal log-linear portion of the plasma concentration—time curve, and the terminal half-life (t1/2) was calculated as ln 2/(λz). Maximum plasma concentrations (Cmax) and time to maximum concentration (Tmax) were determined by direct observation of the data. The area under the concentration-time curve to the last nonzero plasma concentration (Clast) that was above half the lower limit of quantification (10 ng/mL) was calculated by the trapezoidal rule and reported as AUClast. The area under the concentration-time curve extrapolated to infinity (AUC0-∞) was calculated as AUClast+(Clast/λz). Mean and standard deviation values for the parameters were also obtained using the descriptive statistics tool in Phoenix version 6.2. A paired t-test was used to determine if statistical differences existed in log normalized, dose-adjusted area under the curve between oral and intravenous arms.

For data set [2] the following is noted: cited from earlier work.

The term Cmax denotes the peak of the concentration-time curve. For orientation: Tmax means the time from dosing to the highest level. The AUC is the area under the concentration-time curve, a measure of exposure. `NCC(CC(=O)O)c1ccc(Cl)cc1` (racemic) [Baclofen, 4-amino-3-(4-chlorophenyl) butanoic acid]: in data set [1] (5 mg IV over 15 minutes), the “time point of observed maximum baclofen concentration” value was found to be 5 min and the peak level (Cmax) was 313 ng/mL. Also, in data set [1] (5 mg IV), the “AUC0-∞/Dose” value came to 141 ± 33 ng·h/mL/mg and the AUC was determined as 593 ± 111 ng·h/mL. In data set [1] (10 mg oral tablet), this compound came in with a Cmax of 176 ng/mL. Also, the Tmax in data set [1] (10 mg oral tablet, median (min, max)) was 1 h. In data set [1] (10 mg oral), the “AUC0-∞/Dose” value worked out at 102 ± 23 ng·h/mL/mg and the AUC amounted to 878 ± 199 ng·h/mL. The solubility in water entry in data set [2] is given as “slightly soluble”.

The values are drawn from patent US12295929B2, “Intravenous baclofen formulations and treatment methods” (Allaysis, LLC, priority 2015, dated 2025).
